Test results reported in patent US11951134B2, “Cationic platelet lysate compositions and related methods” (North Carolina State University, priority 2019, dated 2024).

Key:
[1] = system: all isolates used in this study; assay: Antimicrobial susceptibility by microbroth dilution; type: cell-based
Text: The laboratory strain of Staphylococcus aureus, ATCC 25923, was used to initially screen the different PRP formulations. Significant findings were then validated using clinical isolates derived from cases of equine septic arthritis collected by the University of Pennsylvania School of Veterinary Medicine New Bolton Center Clinical Microbiology Laboratory and processed in accordance with their Standard Operating Procedures. In vitro antimicrobial susceptibility testing and microbial identification was performed using the ARIS Sensititre™ system, using the equine (EQUIN1F) antimicrobial susceptibility panel for veterinary organisms. Bacteria were saved in frozen stocks on glycerol at −80° C. Blood agar plates were streaked from frozen stocks and used for in vitro experiments for a maximum of 1 month. […]
Synovial fluid pooled from three horses (n=3) was infected at 1×10^5 CFU/mL for Staphylococcus aureus (ATCC 25923) or for each clinical isolate (Staphylococcus aureus, Streptococcus zooepidemicus, Pseudomonas aeruginosa, and Escherichia coli) and incubated for 2 hours at 37° C. in a microaerophilic chamber on a shaker at 120 rpm to allow for […] formation. […] Bacterial load was measured using serial dilutions and plate counting of colony forming units. […]

[2] = system: S. aureus (ATCC 25923) infected tarsocrural joint; assay: Equine S. aureus infectious arthritis model (BIO-PLY 5 mL + 500 mg amikacin vs 500 mg amikacin + saline, intra-articular daily for 7 days); type: in vivo, horse; conditions: end-term (day 24; legend b39: day 23-24); BIO-PLY + amikacin group vs amikacin alone group, n=6 each
Text: Subsequently, the in vitro findings were translated into an in vivo equine model of S. aureus-induced infectious arthritis. Using this model, it was hypothesized that the combination of BIO-PLY and amikacin will decrease bacterial burden and improve outcome parameters in an equine S. aureus infectious arthritis model compared to horses treated with amikacin alone. A highly concentrated (>50 fold), pooled PRP-L was generated from 8 healthy donor horses and processed to have the anionic fraction, including fibrinogen, removed and passed through a 10 kDa molecular weight cutoff filter to remove proteins […] termed BIO-PLY as stated above (IACUC protocol #16-189 of NC State University, Raleigh, N.C.). […]
All horses received systemic antimicrobials (potassium penicillin and gentamicin) for 10 days post-infection as well as a tapering course of phenylbutazone for the duration of the study. Physical examinations were performed daily and pain scores based on lameness, hock swelling, distal limb swelling, pain to palpation, and presence of heat were calculated at days 0-7, 14 and 21. […] Synovial fluid was collected on day 0-7 and assessed for total protein (TP), total nucleated cell count (TNCC), cellular differential, and bacterial load determination, as well as biomarker analysis (EMD Millipore MILLIPLEX MAP Equine Cytokine/Chemokine Magnetic Bead Panel). […]

NCC[C@H](O)C(=O)N[C@@H]1C[C@H](N)[C@@H](O[C@H]2O[C@H](CN)[C@@H](O)[C@H](O)[C@H]2O)[C@H](O)[C@H]1O[C@H]1O[C@H](CO)[C@@H](O)[C@H](N)[C@H]1O [amikacin]
susceptibility of isolates to amikacin [1]: susceptible | bacteria within the synovial tissue at end-term [2]: 80.95±58.77 CFU/g tissue
